In patent publication US12428389B2, “Diarylamide compound and application thereof” (Sunshine Lake Pharma Co., Ltd., priority 2019, dated 2025):

Key:
[1] = system: SD rats; assay: single subcutaneous injection, diuretic effect in rats (metabolic cage); format: in vivo; details: 100 mg/kg subcutaneous
Procedure: The urine collection system was siliconized in advance to prevent urine loss. […] Solvent control: corn oil. The weight of urine was measured by the weight loss method and converted to volume (1 g≈1 mL). […] The peak of the diuretic effect was at 4 h after administration, and the duration of the diuretic effect was about 6-8 h. The results were shown as means±SEM, n=6. The urine osmotic pressure of the collected urine was measured by using a freezing point osmometer. […] The peak of action was at 4 h after administration, and returned to the level before administration at 6-8 h after administration. The results were shown as means±SEM, n=6. The urine samples were detected by using a urea kit for the level of urea in the urine. According to the previously measured urine volume, urine osmotic pressure and urea excretion per 2 h, the excretion of non-urea solutes per 2 h was calculated. […] The results were shown as means±SEM, n=6.

[2] = system: SD rats; assay: single intragastric administration, diuretic effect in rats (metabolic cage); format: in vivo; details: 100 mg/kg, single (FIG. 5: intragastric)
Procedure: The urine collection system was siliconized in advance to prevent urine loss. […] The weight of urine was measured by the weight loss method and converted to volume (1 g≈1 mL). […] Urine volume began to rise at 2 h after administration, the peak of diuretic effect was at 4 h after administration, and the duration of diuretic effect was about 6-8 h. The results were shown as means±SEM, n=6. The urine osmotic pressure of the collected urine was measured by using a freezing point osmometer. […] The peak of action was at 4 h after administration, and recovered to the level before administration at 6-8 h after administration. The results were shown as means±SEM, n=6. Urine samples were detected by using a urea kit for the level of urea in the urine. According to the previously measured urine volume, urine osmotic pressure and urea excretion per 2 h, the excretion of non-urea solutes per 2 h was calculated. […] C57BL/6J mice, male, 6 in each group, weighing 20˜22 g, were taken. […] The urine collection system was siliconized in advance to prevent urine loss. […] Solvent control: CMC-Na. The weight of urine was measured by the weight loss method and converted to volume (1 g≈1 mL). […] The results were shown as means±SEM, n=6. The urine osmotic pressure of the collected urine was measured by using a freezing point osmometer. […] The results were shown as means±SEM, n=6. The urine samples were detected by using a urea kit for the level of urea in the urine. According to the previously measured urine volume, urine osmotic pressure and urea excretion per 2 h, the excretion of non-urea solutes per 2 h was calculated. […] The results were shown as means ±SEM, n=6.

[3] = system: SD rats; assay: toxicity after 7 days intragastric administration in rats (organ indexes, serum, kidney histology)
Procedure: Normal SD rats, 8 weeks old, male, 8 rats in each group were taken. The animals were placed in a metabolic cage and acclimatized for three days prior to the experiment, on a standard diet with free access to water. […] The administration was continued for 7 days. On the 7th day, the rats were anesthetized with sodium pentobarbital, and the liver and kidney were taken, weighed, and the kidney weight index and liver weight index were calculated. […] The kidney tissue was immersed in a fixative solution (4% paraformaldehyde), embedded with a paraffin embedding machine, and then cut into 6 μm thick paraffin sections by a paraffin microtome. […] The sections were observed under an optical microscope. The inner medulla, outer medulla, and cortex of each kidney were selected for comparative observation by an optical microscope. […] Blood was collected by cardiac puncture, then centrifuged to obtain serum, which was used to measure serum indexes by instruments.

[4] = system: MDCK cells; assay: MDCK cytotoxicity test, CCK-8 kit; format: cell-based; details: 7.8-125 μM, cultured for 12 h
Procedure: In order to study the cytotoxicity of the compound of the present invention, an MDCK cytotoxicity test was completed by using a CCK-8 kit. […]. In this study, a CCK-8 kit was used to detect the cytotoxicity of compounds: MDCK cell suspension in logarithmic growth phase was inoculated into a 96-well culture plate (1×10^4 cells/well/100 μL), and 100 μL of DMEM culture solution containing 10% fetal bovine serum, 100 U/mL penicillin and 100 μg/mL streptomycin was administrated to each well, then cultured in a 37° C., 5% CO2 incubator. When the cells were 70%-80% confluent, serum starvation was performed for 12 h for synchronization. […]. At the same time, blank wells (medium, CCK-8) and control wells (cells, dissolving medium of the same concentration compound, medium, CCK-8) were set up, 3 replicate wells per group. Cell survival rate was calculated: cell survival rate (%)=[(ODexperimental well−ODblank well)/(ODcontrol well−ODblank well)]×100%, wherein OD refers to the absorbance value of each well.

In the case of CC(=O)Nc1ccc(NC(=O)c2ccc([N+](=O)[O-])o2)cc1 [Example 3, N-(4-acetamidophenyl)-5-nitrofuran-2-carboxamide], the “duration of the diuretic effect” value [1] is reported as 6 to 8 h, the “peak of action on urine osmotic pressure, time after administration” value [1] is reported as 4 h and the “peak of the diuretic effect, time after administration” value [1] is reported as 4 h. For the same compound, the “urine osmotic pressure returned to the level before administration, time after administration” value [1] was 6 to 8 h, the “duration of diuretic effect” value [2] was 6 to 8 h and the “peak of action on urine osmotic pressure, time after administration” value [2] was 4 h. The “peak of diuretic effect, time after administration” value [2] was 4 h, the “urine osmotic pressure recovered to the level before administration, time after administration” value [2] was 6 to 8 h and the “urine volume began to rise, time after administration” value [2] was 2 h. The serum urea level ([3]; 100 mg/kg intragastric every 8 h, vs control) was “no significant statistical difference”, the “inner medullary tubules, histology” value ([3]; HE sections) was “tubule swelling appeared in the inner medullary” and the “histological morphology of the kidney” value ([3]; HE sections, inner medulla, outer medulla, cortex) was “did not significantly affect”. The Serum chlorine ([3]; n = 8) was 101.7 ± 1.3 mM, the Serum cholesterol ([3]; n = 8) was 1.59 ± 0.06 mM and the Serum glucose ([3]; n = 8) was 9.4 ± 0.3 mM. For the same compound, the Serum high-density lipoprotein ([3]; n = 8) was 0.71 ± 0.03 mM, the Serum low-density lipoprotein ([3]; n = 8) was 0.34 ± 0.03 mM and the Serum potassium ([3]; n = 8) was 4.8 ± 0.2 mM. The Serum sodium ([3]; n = 8) was 147.3 ± 2.0 mM, the Serum triglyceride ([3]; n = 8) was 0.68 ± 0.07 mM and the “cytotoxic effect (cell survival rate)” value [4] was “no significant cytotoxic effect”.
